Experimental data taken from the supplement of paper PMC11451515.

Test system: P12-Ichikawa
Experiment: cell viability relative to DMSO control; higher = less cytotoxic
Settings: 48 h
How it was run: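 Leukemia cells (NOMO1 or SEM, 500 cells/well; P12-Ichikawa, 1000 cells/well) were seeded in 5 μl in 1536-well plates after at least four passages of adaptation to each medium. They received library compounds in DMSO by pin dosing, 11 threefold points from 47 μM to 0.79 nM. Luminescence with CellTiter-Glo One was read after 48 h at 37°C. Viability is stated per plate relative to DMSO wells, with cell-free wells as background.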

[1] = HPLM + 10% dialyzed FBS, 0.000781 µM
[2] = HPLM + 10% dialyzed FBS, 0.00234 µM
[3] = HPLM + 10% dialyzed FBS, 0.00702 µM
[4] = HPLM + 10% dialyzed FBS, 0.0211 µM
[5] = HPLM + 10% dialyzed FBS, 0.0632 µM
[6] = HPLM + 10% dialyzed FBS, 0.19 µM
[7] = HPLM + 10% dialyzed FBS, 0.569 µM
[8] = HPLM + 10% dialyzed FBS, 1.71 µM
[9] = HPLM + 10% dialyzed FBS, 5.12 µM
[10] = HPLM + 10% dialyzed FBS, 15.4 µM
[11] = HPLM + 10% dialyzed FBS, 46.1 µM
[12] = RPMI 5 mM glucose + 10% FBS, 0.000781 µM
[13] = RPMI 5 mM glucose + 10% FBS, 0.00234 µM
[14] = RPMI 5 mM glucose + 10% FBS, 0.00702 µM
[15] = RPMI 5 mM glucose + 10% FBS, 0.0211 µM
[16] = RPMI 5 mM glucose + 10% FBS, 0.0632 µM
[17] = RPMI 5 mM glucose + 10% FBS, 0.19 µM
[18] = RPMI 5 mM glucose + 10% FBS, 0.569 µM
[19] = RPMI 5 mM glucose + 10% FBS, 1.71 µM
[20] = RPMI 5 mM glucose + 10% FBS, 5.12 µM
[21] = RPMI 5 mM glucose + 10% FBS, 15.4 µM
[22] = RPMI 5 mM glucose + 10% FBS, 46.1 µM
[23] = RPMI 5 mM glucose + 10% dialyzed FBS, 0.000781 µM
[24] = RPMI 5 mM glucose + 10% dialyzed FBS, 0.00234 µM
[25] = RPMI 5 mM glucose + 10% dialyzed FBS, 0.00702 µM
[26] = RPMI 5 mM glucose + 10% dialyzed FBS, 0.0211 µM
[27] = RPMI 5 mM glucose + 10% dialyzed FBS, 0.0632 µM
[28] = RPMI 5 mM glucose + 10% dialyzed FBS, 0.19 µM
[29] = RPMI 5 mM glucose + 10% dialyzed FBS, 0.569 µM
[30] = RPMI 5 mM glucose + 10% dialyzed FBS, 1.71 µM
[31] = RPMI 5 mM glucose + 10% dialyzed FBS, 5.12 µM
[32] = RPMI 5 mM glucose + 10% dialyzed FBS, 15.4 µM
[33] = RPMI 5 mM glucose + 10% dialyzed FBS, 46.1 µM

Row | Compound | cell viability [1] | cell viability [2] | cell viability [3] | cell viability [4] | cell viability [5] | cell viability [6] | cell viability [7] | cell viability [8] | cell viability [9] | cell viability [10] | cell viability [11] | cell viability [12] | cell viability [13] | cell viability [14] | cell viability [15] | cell viability [16] | cell viability [17] | cell viability [18] | cell viability [19] | cell viability [20] | cell viability [21] | cell viability [22] | cell viability [23] | cell viability [24] | cell viability [25] | cell viability [26] | cell viability [27] | cell viability [28] | cell viability [29] | cell viability [30] | cell viability [31] | cell viability [32] | cell viability [33]
1 | C[C@H]1C[C@H]2[C@@H]3CCC4=CC(=O)C=C[C@]4(C)[C@H]3C(=O)C[C@]2(C)[C@@]1(O)C(=O)CO | 91.4% | 96.5% | 93.1% | 95.6% | 88% | 92.7% | 87.6% | 94.8% | 88.3% | 101% | 93% | 91.3% | 98.1% | 94% | 90.7% | 94.7% | 99.7% | 94.9% | 97.2% | 100% | 95.7% | 85.3% | 83.7% | 91.7% | 80.1% | 89.7% | 84% | 85.6% | 82.7% | 83.7% | 82.2% | 85.6% | 70.5%
2 | CCC(=O)OC1CCC2C3CCC/4=C/C(=O)CC[C@@]4(C)C3CC[C@]12C (some centres undefined) | 116% | 120% | 126% | 129% | 126% | 127% | 132% | 128% | 129% | 125% | 117% |  |  |  |  |  |  |  |  |  |  |  |  |  |  |  |  |  |  |  |  |  | 
3 | O=[N+]([O-])c1ccc(Nc2ccccc2-c2ccccc2)c2nonc12 | 85.2% | 90.1% | 92.4% | 91.2% | 85.1% | 90.4% | 94.2% | 96.7% | 90.6% | 91% | 89.4% | 83.6% | 91.2% | 86.4% | 91.1% | 90.6% | 88% | 93.4% | 95.4% | 90.7% | 96.2% | 86.5% | 89.6% | 87.1% | 84.8% | 92.3% | 93.8% | 97.6% | 94.1% | 90.7% | 88.7% | 95.2% | 84.9%
4 | CC[C@H](NC(C)C)[C@H](O)c1ccc(O)c2[nH]c(=O)ccc12 | 108% | 111% | 102% | 106% | 99% | 102% | 101% | 105% | 102% | 92.1% | 97.8% | 102% | 106% | 104% | 101% | 96.9% | 107% | 108% | 94.3% | 95.2% | 94.1% | 92.6% | 91.4% | 98.2% | 97.6% | 95% | 100% | 97.1% | 98.2% | 89.9% | 93.5% | 95.1% | 93.8%
5 | CCCOc1ccc2[nH]c(NC(=O)OC)nc2c1 | 125% | 122% | 107% | 99.4% | 54.5% | 35.3% | 17.2% | 21.8% | 25.3% | 18.8% | 23.2% |  |  |  |  |  |  |  |  |  |  |  |  |  |  |  |  |  |  |  |  |  | 
6 | COc1ccc(CC2c3cc(OC)c(OC)cc3CC[N+]2(C)CCC(=O)OCCCCCOC(=O)CC[N+]2(C)CCc3cc(OC)c(OC)cc3C2Cc2ccc(OC)c(OC)c2)cc1OC (centres undefined) | 86.1% | 86.6% | 86.3% | 97.2% | 90.5% | 96.3% | 92% | 96.6% | 97.8% | 95.1% | 86.7% | 82.7% | 86.4% | 91.6% | 92.1% | 92.4% | 95.6% | 99.3% | 99.2% | 85.3% | 96.3% | 83.7% | 80.3% | 83.5% | 87.3% | 91.4% | 93.1% | 96.6% | 93.2% | 83.1% | 86.2% | 95.1% | 90.7%
7 | C[C@]12CC[C@@H]3c4ccc(O)cc4CC[C@H]3[C@@H]1CC[C@@H]2O | 116% | 111% | 113% | 106% | 112% | 116% | 105% | 102% | 100% | 88.9% | 27.1% | 118% | 112% | 115% | 115% | 105% | 111% | 112% | 108% | 107% | 105% | 20.9% | 108% | 111% | 109% | 101% | 103% | 102% | 102% | 94.3% | 94.1% | 75.5% | 28.6%
8 | CO[C@H]1/C=C/O[C@@]2(C)Oc3c(C)c(O)c4c(O)c(c(/C=N/N5CCN(C)CC5)c(O)c4c3C2=O)NC(=O)/C(C)=C\C=C\[C@H](C)[C@H](O)[C@@H](C)[C@@H](O)[C@@H](C)[C@H](OC(C)=O)[C@@H]1C | 116% | 117% | 124% | 120% | 127% | 114% | 108% | 110% | 99.8% | 94.9% | 63.7% | 128% | 111% | 118% | 118% | 124% | 112% | 123% | 116% | 98.3% | 89.9% | 75.4% | 124% | 120% | 123% | 123% | 122% | 111% | 109% | 115% | 93.2% | 82% | 70.6%
9 | CCCC1=N[N](C)C2=C1\N=C(/NC2=O)C3=CC(=CC=C3OCC)[S+]([O-])(=O)N4CCN(C)CC4 | 82.3% | 92.6% | 89.5% | 88.6% | 90.7% | 89.5% | 88.2% | 80.4% | 86.5% | 84% | 50.7% | 81.4% | 87.3% | 89.2% | 80.9% | 77.5% | 87.6% | 84.1% | 82.1% | 85.2% | 82.4% | 20.7% | 81.4% | 84.5% | 80.8% | 86.6% | 82.5% | 86.8% | 79.7% | 85.1% | 77.8% | 79.2% | 33.1%
10 | Cc1ccc(NC(=O)c2cccc(N(C)C)c2)cc1NC(=O)c1ccc(O)cc1 | 120% | 120% | 118% | 116% | 111% | 116% | 119% | 108% | 108% | 108% | 96.7% | 114% | 122% | 120% | 127% | 113% | 111% | 119% | 113% | 113% | 102% | 95.2% |  |  |  |  |  |  |  |  |  |  | 
11 | CN(C)CC[C@H](CSc1ccccc1)Nc1ccc([S+](=O)([O-])NC(=O)c2ccc(N3CCN(Cc4ccccc4-c4ccc(Cl)cc4)CC3)cc2)cc1[N+](=O)[O-] | 118% | 123% | 120% | 110% | 115% | 97.8% | 85.4% | 56.7% | 14.9% | 7.53% | 4.59% | 127% | 116% | 116% | 115% | 120% | 115% | 108% | 79.9% | 24.2% | 12.5% | 4.92% | 124% | 128% | 124% | 124% | 119% | 117% | 95.5% | 76.1% | 15.8% | 8.77% | 4.13%
12 | COc1cc(Nc2ncc(F)c(Nc3ccc4c(n3)N(COP(=O)(O)O)C(=O)C(C)(C)O4)n2)cc(OC)c1OC | 97% | 102% | 101% | 102% | 108% | 106% | 105% | 103% | 110% | 108% | 98.2% | 100% | 98.2% | 89.6% | 100% | 97.4% | 96.8% | 92.4% | 95.7% | 95.2% | 93.9% | 87.4% | 92.8% | 94.8% | 98.4% | 98% | 103% | 97.7% | 93.9% | 91.1% | 101% | 91.6% | 91.6%
13 | OCCNC1CCCc2c1[nH]c1ccc(-c3ccccc3)cc21 (centres undefined) | 100% | 107% | 106% | 105% | 110% | 110% | 115% | 108% | 111% | 78.4% | 16.6% | 103% | 111% | 109% | 108% | 114% | 108% | 114% | 118% | 110% | 73.5% | 18.2% | 105% | 111% | 113% | 109% | 107% | 114% | 119% | 114% | 111% | 80.4% | 28.9%
14 | Cc1cc(-c2nnc3n2CCCCC3)c(C)n1-c1ccccc1 | 120% | 117% | 122% | 119% | 118% | 116% | 118% | 117% | 115% | 117% | 104% |  |  |  |  |  |  |  |  |  |  |  | 125% | 119% | 118% | 125% | 118% | 119% | 124% | 126% | 122% | 109% | 111%
15 | CN1CCN(Cc2ccc(NC(=O)Nc3ccc(Oc4cc(NC(=O)C5CC5)ncn4)cc3)cc2C(F)(F)F)CC1 | 100% | 108% | 103% | 113% | 114% | 113% | 46.7% | 9.49% | 10.2% | 8.59% | 0.0522% | 105% | 110% | 117% | 121% | 122% | 132% | 44.7% | 9.59% | 8.79% | 6.05% | 0.799% | 92.4% | 113% | 111% | 121% | 122% | 123% | 35.4% | 12.8% | 11.6% | 11.8% | 0.55%
